The assay addresses T1, AAC(2′)-Ia (Providencia stuartii, UniProt Q52424).
T1 construct: synthetic gene in pET-15b, E. coli BL21(DE3); N-terminal His-tag removed with thrombin; homodimer
Description: X-ray crystal structure. Type of assay: binding. The note with it: product complex with acetylated plazomicin, 1.95 Å; formed from acetyl-CoA during crystallization; active site.

T1 sequence (Q52424 whole entry): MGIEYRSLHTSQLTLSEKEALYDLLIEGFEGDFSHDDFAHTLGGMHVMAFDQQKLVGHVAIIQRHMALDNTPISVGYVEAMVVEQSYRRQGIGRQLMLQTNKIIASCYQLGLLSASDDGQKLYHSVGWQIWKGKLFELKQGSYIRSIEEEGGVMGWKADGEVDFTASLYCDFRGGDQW

Turning to `CC(C)(COP(=O)(O)OP(=O)(O)OC[C@H]1O[C@@H](n2cnc3c(N)ncnc32)[C@H](O)[C@@H]1OP(=O)(O)O)[C@@H](O)C(=O)NCCC(=O)NCCS` [CoA], the X-ray crystal structure result is “identified the enzymatically modified plazomicin and CoA in the active site”.

The values are drawn from article PMC8195987, “Structural basis for plazomicin antibiotic action and resistance” (Communications Biology, 2021).
